Experimental data as given in article PMC10762035, “Molecular basis of human trace amine-associated receptor 1 activation” (Nature Communications, 2024).
Positions count from the first letter of the chain named. Values joined by “and” are separate entries in the source; they are usually repeats but may differ in a detail not shown here. Equal entries are not always repeated.

What was measured:
Format in all cases: cell-based
hTA1 W264F = target: T1, hTA1 W264F (Homo sapiens, UniProt Q96RJ0, W264F); test: GloSensor cAMP accumulation assay, W264F mutant;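 also: cells transiently transfected with receptor plus GloSensor, luminescence read 30 min after agonist addition at room temperature, concentration-response curves fitted by log(agonist) vs response regression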
T1 construct: expressed in transfected cells; host or cells: HEK293T
T1 sequence (Q96RJ0 1-339 W264F): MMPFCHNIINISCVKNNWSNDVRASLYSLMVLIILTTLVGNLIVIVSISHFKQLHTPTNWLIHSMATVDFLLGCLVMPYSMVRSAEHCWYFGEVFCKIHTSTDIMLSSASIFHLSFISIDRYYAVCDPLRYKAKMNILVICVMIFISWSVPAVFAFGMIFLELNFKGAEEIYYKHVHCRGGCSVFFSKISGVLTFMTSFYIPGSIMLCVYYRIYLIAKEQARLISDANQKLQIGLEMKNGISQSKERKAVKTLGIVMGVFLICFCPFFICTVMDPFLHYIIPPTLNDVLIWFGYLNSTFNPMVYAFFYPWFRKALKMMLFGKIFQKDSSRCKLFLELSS

hTA1 T271A = target: T2, hTA1 T271A (Homo sapiens, UniProt Q96RJ0, T271A); test: GloSensor cAMP accumulation assay, T271A mutant
T2 construct: expressed in transfected cells; host or cells: HEK293T
T2 sequence (Q96RJ0 1-339 T271A): T1 sequence (Q96RJ0 1-339 W264F) with F264W, T271A

hTA1 C96S = target: T3, hTA1 C96S (Homo sapiens, UniProt Q96RJ0, C96S); test: GloSensor cAMP accumulation assay, C96S mutant; settings: log[Compound]
T3 construct: expressed in transfected cells; host or cells: HEK293T
T3 sequence (Q96RJ0 1-339 C96S): T1 sequence (Q96RJ0 1-339 W264F) with C96S, F264W

hTA1 F195T = target: T4, hTA1 F195T (Homo sapiens, UniProt Q96RJ0, F195T); test: GloSensor cAMP accumulation assay, F195T mutant;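 also: cells transiently co-expressing HA-FLAG-tagged hTA1 and the GloSensor cAMP biosensor, luminescence read 30 min after agonist addition at room temperature, concentration-response fitted by nonlinear regression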
T4 construct: expressed in transfected cells; host or cells: HEK293T
T4 sequence (Q96RJ0 1-339 F195T): T1 sequence (Q96RJ0 1-339 W264F) with F195T, F264W

hTA1 I290N = target: T5, hTA1 I290N (Homo sapiens, UniProt Q96RJ0, I290N); test: GloSensor cAMP accumulation assay, I290N mutant;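 also: cells transiently co-expressing hTA1 and the GloSensor cAMP biosensor, luminescence read 30 min after compound addition at room temperature, efficacy scaled to the maximal β-PEA response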
T5 construct: expressed in transfected cells; host or cells: HEK293T
T5 sequence (Q96RJ0 1-339 I290N): T1 sequence (Q96RJ0 1-339 W264F) with F264W, I290N

For `NCCc1ccc(Oc2ccc(O)cc2)c(I)c1` [T1AM, 3-iodothyronamine], the “ΔEmax values (each mutant value - WT average)” value (hTA1 W264F; W246F mutant (so in the source) minus WT average) was -30.8369, the “Emax values, Mean” value (hTA1 W264F; W246F mutant (so in the source), β-PEA = 100, each line an independent experiment, 3 replicates) was 17.7915 and the “Span ± SEM (Emax normalized to β-PEA)” value (hTA1 W264F; W264F, n=2) was 28.7 ± 10.91. The “pEC50 ± SEM” value (hTA1 W264F; W264F, n=2) was 4.95 ± 0.97, the EC50 (hTA1 W264F; W264F, n=2, read-out: EC50) was 11.3 µM and the “ΔpEC50 values (each mutant value - WT average), Mean” value (from here on “ΔpEC50 values”) (hTA1 T271A; T271A mutant minus WT average, Figure 5B) was -0.6347 and -0.7159. The “pEC50 values, Mean” value (hTA1 T271A; T271A mutant, Figure 5B, each row one independent experiment (3 replicates)) was 5.495 and 5.413, the “Emax values, Mean” value (hTA1 T271A; T271A mutant, Figure 5B, β-PEA = 100, each row one independent experiment (3 replicates)) was 41.9229 and 94.6558 and the “Span ± SEM (Emax normalized to β-PEA)” value (hTA1 T271A; T271A, n=2) was 68.29. The “pEC50 ± SEM” value (hTA1 T271A; T271A, n=2) was 5.45 ± 0.03, the EC50 (hTA1 T271A; T271A, n=2, read-out: EC50) was 3.52 µM and the “Normalized Luminescence Counts” value (hTA1 C96S; C96S, M = -5, single replicates (N=2)) was -4.527 and 0.08646 and -0.5726 and 12.7948 and 5.048 and 3.112. For the same compound, the “Normalized Luminescence Counts” value (hTA1 C96S; C96S, M = -5.522, single replicates (N=2)) was -1.232 and -3.209 (2×) and 24.4145 and 1.175 and -2.698, the “Normalized Luminescence Counts” value (hTA1 C96S; C96S, M = -6, single replicates (N=2)) was -1.891 and -5.845 and -6.504 and 30.2243 and -2.698 and -0.7614 and the “Normalized Luminescence Counts” value (hTA1 C96S; C96S, M = -6.522, single replicates (N=2)) was -5.186 (2×) and -5.845 and -10.4444 and -0.7614 and -2.698. The “Normalized Luminescence Counts” value (hTA1 C96S; C96S, M = -7, single replicates (N=2)) was -3.209 and -6.504 and -1.891 and -14.3176 and -8.508 and -10.4444, the “Normalized Luminescence Counts” value (hTA1 C96S; C96S, M = -7.522, single replicates (N=2)) was -1.891 and -5.186 (2×) and -4.6346 and 3.112 and -6.571 and the “Normalized Luminescence Counts” value (hTA1 C96S; C96S, M = -8, single replicates (N=2)) was 0.08646 and -3.868 and -1.232 and 14.7315 and 18.6047 (2×). The “Normalized Luminescence Counts” value (hTA1 C96S; C96S, M = -8.522, single replicates (N=2)) was -1.891 and -1.232 (2×) and 14.7315 (2×) and 8.922, the “Normalized Luminescence Counts” value (hTA1 C96S; C96S, M = -9, single replicates (N=2)) was -1.232 and -1.891 (2×) and 30.2243 and 37.9707 and 3.112 and the “Normalized Luminescence Counts” value (hTA1 C96S; C96S, M = -9.522, single replicates (N=2)) was -3.209 and -1.891 and -1.232 and 16.6681 and 5.048 and 20.5413. For the same compound, the “Normalized Luminescence Counts” value (hTA1 C96S; C96S, M = -10, single replicates (N=2)) was 2.064 and -0.5726 and 0.7455 and -0.7614 and -4.6346 and -6.571, the “Normalized Luminescence Counts” value (hTA1 C96S; C96S, M = -10.522, single replicates (N=2)) was -1.891 and -3.868 and 0.08646 and 1.175 and -6.571 and -4.6346 and the “Normalized Luminescence Counts” value (hTA1 C96S; C96S, M = -11, single replicates (N=2)) was 1.4045 and 0.7455 (2×) and 34.0975 (2×) and 14.7315. The “Normalized Luminescence Counts” value (hTA1 C96S; C96S, M = -11.522, single replicates (N=2)) was 1.4045 (2×) and -0.5726 and 24.4145, the “Normalized Luminescence Counts” value (hTA1 C96S; M = -11.522, single replicates, mutant block above C178S) was -0.4742 (2×) and -0.6563 and 0.6424 and -0.05214 and -0.3727 and the “Normalized Luminescence Counts” value (hTA1 C96S; M = -12, single replicates, mutant block above C178S) was -0.08731 (2×) and -0.5653 and 0.1081 and 0.001279 (2×). The “Normalized Luminescence Counts” value (hTA1 C96S; M = -12.522, single replicates, mutant block above C178S) was -0.2011 and 0.5045 and -0.6791 and -0.1056 and 0.9095 and -0.05214, the “ΔpEC50 values” value (hTA1 F195T; F195T mutant minus WT average, Figure 5B) was -0.7125 and -0.7788 and the “pEC50 values, Mean” value (hTA1 F195T; F195T mutant, Figure 5B, each row one independent experiment (3 replicates)) was 5.417 and 5.35. The “Emax values, Mean” value (hTA1 F195T; F195T mutant, Figure 5B, β-PEA = 100, each row one independent experiment (3 replicates)) was 72.2975 and 58.7221, the “Span ± SEM (Emax normalized to β-PEA)” value (hTA1 F195T; F195T, n=2) was 65.51 ± 6.79 and the “pEC50 ± SEM” value (hTA1 F195T; F195T, n=2) was 6.67 ± 1.32. The EC50 (hTA1 F195T; F195T, n=2, read-out: EC50) was 213 nM, the “increase in potency vs wild type” value (hTA1 I290N; I290N) was “about 5 fold” and the “Span ± SEM (Emax normalized to β-PEA)” value (hTA1 I290N; I290N, n=2) was 76.97 ± 5.53. The “pEC50 ± SEM” value (hTA1 I290N; I290N, n=2) was 6.86 ± 0.07, the EC50 (hTA1 I290N; I290N, n=2, read-out: EC50) was 139 nM and the “cAMP accumulation response, single replicate values (source data, Supplementary Figure 5)” value (hTA1 I290N; hTA1 I290N (N=2), log[Compound], M = -5) was 86.8237 and 86.3523 and 77.8671 and 98.8421. For the same compound, the “ΔpEC50 values” value (hTA1 I290N; hTA1 I290N mutant minus WT average) was 0.6614 and 0.7922, the “pEC50 values, Mean” value (hTA1 I290N; hTA1 I290N mutant, Figure 3B source data, each grid row a separate experiment, 3 replicates) was 6.791 and 6.921 and the “Emax values, Mean” value (hTA1 I290N; hTA1 I290N mutant, β-PEA set to 100, each grid row a separate experiment, 3 replicates) was 82.4992 and 71.4451.
